Results on 40 compounds are retold here after US10221138B2, “Biaryl derivatives as GPR120 agonists” (LG CHEM, LTD., priority 2013, dated 2019).

pEC50: −log10 of the molar value.

For one test, the target named is T1, hGPR120 (Homo sapiens, UniProt Q5NUL3).
T1 construct: expressed in transfected cells; host or cells: CHO-K1
T1 sequence (Q5NUL3 1-361): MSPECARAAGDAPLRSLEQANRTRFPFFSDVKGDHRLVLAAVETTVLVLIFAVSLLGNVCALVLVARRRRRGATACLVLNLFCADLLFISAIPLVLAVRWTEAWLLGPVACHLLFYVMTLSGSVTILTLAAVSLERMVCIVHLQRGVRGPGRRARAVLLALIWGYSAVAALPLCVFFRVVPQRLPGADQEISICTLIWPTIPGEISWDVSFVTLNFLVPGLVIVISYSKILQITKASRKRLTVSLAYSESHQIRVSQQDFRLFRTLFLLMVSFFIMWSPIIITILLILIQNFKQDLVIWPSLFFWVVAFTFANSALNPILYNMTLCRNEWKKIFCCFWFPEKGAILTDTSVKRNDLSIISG
In words: Measurement of activity of GPR120 agonist (cell-based calcium fluorescence assay).
Conditions: not given
How it is done: CHO-K1 cells expressing Ga16 and hGPR120 were dispensed into each well of a 96-well plate (3×10^4 cells/100 μl/well) and then incubated in 5% CO2, 37° C. incubator for 18 hours. Each well was treated with 100 μl of Calcium 5 dye (Molecular Devices) solution including 2% DMSO and then incubated in 5% CO2, 37° C. incubator for 1 hour. Serially diluted GPR120 agonists were prepared to a final concentration of 0.5% DMSO in a 96-well plate.
Fluorescence increased by the serially diluted GPR120 agonists is calculated as a relative percent (%) value based on the fluorescence represented by the treatment of 1% DMSO only. […] The calculation of measurement was carried out by using statistical software (Prizm).
Activity is denoted based on the following criteria: […]
As a reminder, the pEC50 is −log10 of the EC50, conventionally taken in molar units. Take `CC(C)Nc1ccccc1-c1cc(F)c(OCCCC(=O)O)c(F)c1` [Example 83, 4-[2,6-difluoro-4-[2-(isopropylamino)phenyl]phenoxy]butanoic Acid]: the pEC50 was 5.70 to 6.70.

Staying with this test, now noted: CHO-K1 cells expressing Ga16 and hGPR120, Calcium 5 dye fluorescence; activity class; read-out: EC50.
Take `CC(C)Sc1ncccc1-c1cc(F)c(OCCCC(=O)O)c(F)c1` [Example 41, 4-[2,6-difluoro-4-(2-isopropylsulfanyl-pyridin-3-yl)-phenoxy]-butyric acid]: the pEC50 was 5.70 to 6.70.

On to `CC(C)Oc1ncccc1-c1cc(F)c(OCCCC(=O)O)c(F)c1` [Example 43, 4-[2,6-difluoro-4-(2-isopropoxy-pyridin-3-yl)-phenoxy]-butyric acid], for which the pEC50 was 5.70 to 6.70.

For `O=C(O)CCCOc1c(F)cc(-c2cccnc2OC2CCCC2)cc1F` [Example 44, 4-[4-(2-cyclopentyloxy-pyridin-3-yl)-2,6-difluoro-phenoxy]-butyric acid], the pEC50 is above 6.70.

With `O=C(O)CCCOc1c(F)cc(-c2cccnc2OCC2CC2)cc1F` [Example 46, 4-[4-(2-cyclopropylmethoxy-pyridin-3-yl)-2,6-difluoro-phenoxy]-butyric acid], the pEC50 is 5.70 to 6.70.

Consider `O=C(O)CCCOc1c(F)cc(-c2cccnc2SCC2CC2)cc1F` [Example 47, 4-[4-(2-cyclopropylmethylsulfanyl-pyridin-3-yl)-2,6-difluoro-phenoxy]-butyric acid], for which the pEC50 was above 6.70.

Turning to `O=C(O)CCCOc1ccc(-c2cccnc2SC2CCC2)cc1` [Example 48, 4-[4-(2-cyclobutylsulfanyl-pyridin-3-yl)-phenoxy]-butyric acid], the negative-log EC50 (pEC50) was above 6.70.

For the compound `O=C(O)CCCOc1ccc(-c2cccnc2SCC2CC2)cc1` [Example 49, 4-[4-(2-cyclopropylmethylsulfanyl-pyridin-3-yl)-phenoxy]-butyric acid], the negative logarithm of the EC50 (pEC50) is 5.70 to 6.70.

For `CCCSc1ncccc1-c1ccc(OCCCC(=O)O)cc1` [Example 51, 4-[4-(2-propylsulfanyl-pyridin-3-yl)-phenoxy]-butyric acid], the pEC50 is above 6.70.

For `CC(C)Oc1ccccc1-c1cc(F)c(OCCCC(=O)O)c(F)c1` [Example 52, 4-(3,5-difluoro-2′-isopropoxy-biphenyl-4-yloxy)-butyric acid], the pEC50 was 5.70 to 6.70.

As for `O=C(O)CCCOc1c(F)cc(-c2ccccc2OC2CCC2)cc1F` [Example 53, 4-(2′-cyclobutoxy-3,5-difluoro-biphenyl-4-yloxy)-butyric acid], the pEC50 was above 6.70.

For the compound `O=C(O)CCCOc1c(F)cc(-c2ccccc2OCC2CC2)cc1F` [Example 54, 4-(2′-cyclopropylmethoxy-3,5-difluoro-biphenyl-4-yloxy)-butyric acid], the pEC50 was above 6.70.

Turning to `O=C(O)CCCOc1c(F)cc(-c2ccccc2OC2CCCC2)cc1F` [Example 55, 4-(2′-cyclopentyloxy-3,5-difluoro-biphenyl-4-yloxy)-butyric acid], the pEC50 is above 6.70.

As for `O=C(O)CCCOc1ccc(-c2ccccc2OC2CCCC2)cc1` [Example 56, 4-(2′-cyclopentyloxy-biphenyl-4-yloxy)-butyric acid], the negative-log EC50 (pEC50) was 5.70 to 6.70.

For the compound `CC(C)Oc1ccccc1-c1ccc(OCCCC(=O)O)cc1` [Example 57, 4-(2′-isopropoxy-biphenyl-4-yloxy)-butyric acid], the pEC50 is 5.70 to 6.70.

Turning to `O=C(O)CCCOc1ccc(-c2ccccc2OCC2CC2)cc1` [Example 58, 4-(2′-cyclopropylmethoxy-biphenyl-4-yloxy)-butyric acid], the pEC50 is 5.70 to 6.70.

For the compound `CC(CCOc1c(F)cc(-c2cccnc2SC2CCC2)cc1F)C(=O)O` (stereo not shown) [Example 59, 4-[4-(2-cyclobutylsulfanyl-pyridin-3-yl)-2,6-difluoro-phenoxy]-2-methyl-butyric acid], the pEC50 is above 6.70.

As to `O=C(O)C1CC1COc1c(F)cc(-c2cccnc2SC2CCC2)cc1F` (stereo not shown) [Example 60, 2-[4-(2-cyclobutylsulfanyl-pyridin-3-yl)-2,6-difluoro-phenoxymethyl]-cyclopropanecarboxylic acid], the pEC50 is above 6.70.

As for `O=C(O)CCCOc1cc(F)c(-c2cccnc2SC2CCC2)cc1F` [Example 61, 4-[4-(2-cyclobutylsulfanyl-pyridin-3-yl)-2,5-difluoro-phenoxy]-butyric acid], the pEC50 was 5.70 to 6.70.

For `O=C(O)CCCOc1cc(F)c(-c2cccc(SC3CCC3)n2)cc1F` [Example 62, 4-[4-(6-cyclobutylsulfanyl-pyridin-2-yl)-2,5-difluoro-phenoxy]-butyric acid], the pEC50 is 5.70 to 6.70.

With `CC(C)(C)Sc1ncccc1-c1cc(F)c(OCCCC(=O)O)c(F)c1` [Example 63, 4-[4-(2-tert-butylsulfanyl-pyridin-3-yl)-2,6-difluoro-phenoxy]-butyric acid], the pEC50 was 4.70 to 5.70.

In the case of `CCCSc1ncccc1-c1cc(F)c(OCCCCCC(=O)O)c(F)c1` [Example 64, 6-[2,6-difluoro-4-(2-propylsulfanyl-3-pyridyl)phenoxy]hexanoic acid], the pEC50 is above 6.70.

Consider `CC(C)=Cc1cccc(-c2cc(F)c(OCCCC(=O)O)c(F)c2)n1` [Example 65, 4-{2,6-difluoro-4-[6-(2-methyl-propenyl)-pyridin-2-yl]-phenoxy}-butyric acid], for which the pEC50 is above 6.70.

For the compound `O=C(O)CCCOc1cc(F)c(-c2cccnc2SC2CCC2)c(F)c1` [Example 67, 4-[4-(2-cyclobutylsulfanyl-pyridin-3-yl)-3,5-difluoro-phenoxy]-butyric acid], the negative-log EC50 (pEC50) is 5.70 to 6.70.

Take `O=C(O)CCCOc1c(F)cc(-c2cccnc2OC2CCOCC2)cc1F` [Example 68, 4-{2,6-difluoro-4-[2-(tetrahydro-pyran-4-yloxy)-pyridin-3-yl]-phenoxy}-butyric acid]: the negative-log EC50 (pEC50) is 5.70 to 6.70.

Regarding `COCCOc1ncccc1-c1cc(F)c(OCCCC(=O)O)c(F)c1` [Example 71, 4-{2,6-difluoro-4-[2-(2-methoxy-ethoxy)-pyridin-3-yl]-phenoxy}-butyric acid], the pEC50 was 4.70 to 5.70.

Consider `O=C(O)CCCOc1c(F)cc(-c2cccnc2N2CCCC2)cc1F` [Example 72, 4-[2,6-difluoro-4-(2-pyrrolidin-1-yl-3-pyridyl)phenoxy]butanoic Acid], for which the pEC50 was 5.70 to 6.70.

On to `O=C(O)CCCOc1c(F)cc(-c2cccnc2NC2CCCC2)cc1F` [Example 73, 4-[4-[2-(cyclopentylamino)-3-pyridyl]-2,6-difluoro-phenoxy]butanoic acid], for which the pEC50 is 5.70 to 6.70.

Turning to `O=C(O)CCCOc1c(F)cc(-c2cccnc2NCC2CC2)cc1F` [Example 74, 4-[4-[2-(cyclopropylmethylamino)-3-pyridyl]-2,6-difluoro-phenoxy]butanoic acid], the pEC50 was 5.70 to 6.70.

Take `O=C(O)CCCOc1c(F)cc(-c2cccc(NCC3CC3)n2)cc1F` [Example 75, 4-[4-[6-(cyclopropylmethylamino)-2-pyridyl]-2,6-difluoro-phenoxy]butanoic acid]: the pEC50 is 5.70 to 6.70.

`CC(C)Nc1ncccc1-c1cc(F)c(OCCCC(=O)O)c(F)c1` [Example 76, 4-[2,6-difluoro-4-[2-(isopropylamino)-3-pyridyl]phenoxy]butanoic acid]: the pEC50 was 5.70 to 6.70.

Consider `O=C(O)CCCOc1c(F)cc(-c2cccnc2NC2CC2)cc1F` [Example 77, 4-[4-[2-(cyclopropylamino)-3-pyridyl]-2,6-difluoro-phenoxy]butanoic acid], for which the negative logarithm of the EC50 (pEC50) is below 4.70.

Consider `CC(C)Nc1cccc(-c2cc(F)c(OCCCC(=O)O)c(F)c2)n1` [Example 78, 4-[2,6-difluoro-4-[6-(isopropylamino)-2-pyridyl]phenoxy]butanoic acid], for which the pEC50 is 5.70 to 6.70.

On to `O=C(O)CCCOc1c(F)cc(-c2ccccc2NC2CCCC2)cc1F` [Example 79, 4-[4-[2-(cyclopentylamino)phenyl]-2,6-difluoro-phenoxy]butanoic acid], for which the pEC50 was above 6.70.

For the compound `O=C(O)CCCOc1c(F)cc(-c2cccc(NC3CCCC3)c2)cc1F` [Example 80, 4-[4-[3-(cyclopentylamino)phenyl]-2,6-difluoro-phenoxy]butanoic acid], the negative-log EC50 (pEC50) was above 6.70.

In the case of `CCCNc1ccccc1-c1cc(F)c(OCCCC(=O)O)c(F)c1` [Example 81, 4-[2,6-difluoro-4-[2-(propylamino)phenyl]phenoxy]butanoic acid], the pEC50 is above 6.70.

`O=C(O)CCCOc1c(F)cc(-c2ccccc2NCC2CC2)cc1F` [Example 82, 4-[4-[2-(cyclopropylmethylamino)phenyl]-2,6-difluoro-phenoxy]butanoic acid]: the negative logarithm of the EC50 (pEC50) is above 6.70.

With `O=C(O)CCCOc1ccc(-c2ccccc2NCC2CC2)cc1` [Example 85, 4-[4-[2-(cyclopropylmethylamino)phenyl]phenoxy]butanoic acid], the pEC50 is 5.70 to 6.70.

Regarding `CCCNc1ccccc1-c1ccc(OCCCC(=O)O)cc1` [Example 86, 4-[4-[2-(propylamino)phenyl]phenoxy]butanoic acid], the pEC50 is 5.70 to 6.70.

On to `CC(C)Nc1ccccc1-c1ccc(OCCCC(=O)O)cc1` [Example 87, 4-[4-[2-(isopropylamino)phenyl]phenoxy]butanoic acid], for which the pEC50 was 5.70 to 6.70.
